The target of data set [1] is T1, α-amylase from hog pancreas (EC 3.2.1.1) (Sus scrofa, UniProt P00690).
T1 sequence (P00690 16-511): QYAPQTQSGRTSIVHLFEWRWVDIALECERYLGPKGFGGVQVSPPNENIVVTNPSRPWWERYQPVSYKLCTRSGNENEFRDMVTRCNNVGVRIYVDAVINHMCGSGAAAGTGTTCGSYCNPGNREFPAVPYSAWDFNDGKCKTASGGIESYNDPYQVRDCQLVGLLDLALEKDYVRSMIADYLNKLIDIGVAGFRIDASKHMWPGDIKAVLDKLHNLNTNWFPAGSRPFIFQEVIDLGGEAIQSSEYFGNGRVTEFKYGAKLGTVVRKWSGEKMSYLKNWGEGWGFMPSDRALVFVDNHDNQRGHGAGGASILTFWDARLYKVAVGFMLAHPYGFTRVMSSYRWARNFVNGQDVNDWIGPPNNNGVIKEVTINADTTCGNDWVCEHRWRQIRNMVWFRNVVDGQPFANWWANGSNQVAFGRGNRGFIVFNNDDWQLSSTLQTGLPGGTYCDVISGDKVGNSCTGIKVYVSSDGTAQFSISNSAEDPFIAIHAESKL
The data set can be described thus: α-amylase inhibition assay (starch, DNS, absorbance at 540 nm).
Experimental: All the compounds were dissolved in DMSO, and DMSO working concentration in the enzyme inhibition test was 5%.
Then, 100 μL starch solution (final concentration 0.5%) was added into the mixture and further incubated for 10 min. After 100 μL DNS (containing 1 M potassium sodium tartrate and 48 mM 3,5-dinitrosalicylic acid) was added, the mixture was boiled for 15 min. After diluting using 900 μL distilled water, the absorbance was measured at 540 nm. […] All experiments were carried out in quadruplicate.

In data set [2] the target is α-glucosidase from Saccharomyces cerevisiae (EC 3.2.1.20) (Saccharomyces cerevisiae, UniProt P53341). The data set can be described thus: biochemical. Type of data set: biochemical. As to conditions: for IC50: mean ± SD, quadruplicate, PBS pH 6.8, 37°C, 5% DMSO, read-out: α-glucosidase inhibition (IC50 μM).
Chain of α-glucosidase from Saccharomyces cerevisiae (EC 3.2.1.20) (P53341 whole entry): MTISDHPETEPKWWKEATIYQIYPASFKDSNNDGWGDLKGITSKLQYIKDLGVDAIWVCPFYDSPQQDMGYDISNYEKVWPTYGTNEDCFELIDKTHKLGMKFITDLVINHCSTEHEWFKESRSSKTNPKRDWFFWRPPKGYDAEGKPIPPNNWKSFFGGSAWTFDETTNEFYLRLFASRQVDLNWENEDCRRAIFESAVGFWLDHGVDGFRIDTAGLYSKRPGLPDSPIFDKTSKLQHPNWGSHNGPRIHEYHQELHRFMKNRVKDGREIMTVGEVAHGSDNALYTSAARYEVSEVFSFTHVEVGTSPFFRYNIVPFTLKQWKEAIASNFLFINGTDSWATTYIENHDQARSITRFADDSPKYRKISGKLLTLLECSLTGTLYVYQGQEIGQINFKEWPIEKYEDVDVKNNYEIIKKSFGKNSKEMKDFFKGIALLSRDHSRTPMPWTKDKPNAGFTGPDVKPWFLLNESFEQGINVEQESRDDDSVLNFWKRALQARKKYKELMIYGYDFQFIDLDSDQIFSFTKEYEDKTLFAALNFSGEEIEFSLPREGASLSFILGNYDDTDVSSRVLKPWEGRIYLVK
The subject of a further data set is 3T3-L1 cells. The data set is described as follows: Cell cytotoxicity assay, 3T3-L1. Type of data set: cell-based. As to conditions: under a concentration of 100 μM.
A further data set has as its system HepG2 cells. The data set is described as follows: Cell cytotoxicity assay, HepG2. The data set is classed as cell-based. The following applies: under a concentration of 100 μM.
Another data set has as its target T2, α-glucosidase (Saccharomyces cerevisiae, UniProt P53341).
T2 construct: purchased Sigma-Aldrich
The data set can be described thus: Inhibition kinetics assay against α-glucosidase. The data set is classed as biochemical. Here is the method: The α-glucosidase inhibition assay of analogs 4a–4s was carried out as in previously reported methods, with minor modifications ([Xu et al., 2020]). Then, 10 μL α-glucosidase and 10 μL test sample (dissolved in DMSO) were added into 130 μL PBS (50 mM phosphate saline buffer, pH 6.8) and incubated for 10 min at 37°C. After adding 50 μL pNPG, the absorbance change of the mixture at 405 nm was monitored. Then, the percent inhibition was calculated ([Ademiluyi and Oboh, 2013]). All experiments were carried out in quadruplicate.
(§1) The inhibition kinetics of 4i and 4o against α-glucosidase and α-amylase, respectively, was investigated using a similar aforementioned inhibition assay method. The enzyme inhibitory kinetics was obtained by the plots of the enzymatic reaction rate vs. enzyme concentration with or without the inhibitor, and the substrate inhibitory kinetics was measured using the Lineweaver–Burk plot of the enzymatic reaction rate vs. substrate concentration with or without the inhibitor.

The next data set concerns the target T3, α-amylase (Sus scrofa, UniProt P00690).
T3 construct: α-amylase from hog pancreas (EC 3.2.1.1); purchased Sigma-Aldrich; host or cells: hog pancreas
T3 sequence (P00690 16-511): T1 sequence (P00690 16-511)
The data set can be described thus: Inhibition kinetics assay against α-amylase. Type of data set: biochemical, hog. Here is the method:
All experiments were carried out in quadruplicate.
as §1

Where [3] appears, read: plots of enzymatic reaction rate vs. enzyme concentration pass through the origin.

Results on 19 compounds are retold here after paper PMC9213889 (Frontiers in Chemistry, 2022).

Broadly, the IC50 is the concentration at which inhibition is half-maximal. One may read the melting point as the temperature, or range, at which the solid turns liquid.

T2 sequence (P53341 whole entry): as above

As to `CC1(C)CC[C@]2(C(=O)O)CC[C@]3(C)C(=CCC4[C@@]5(C)C/C(=C\c6ccccc6)[C@H](O)C(C)(C)C5CC[C@]43C)C2C1` (some centres unmarked) [Compound 4a], the IC50 is 41.2 ± 2.99 µM in data set [1] and 1.9 ± 0.31 µM in data set [2].
With `Cc1ccccc1/C=C1\C[C@@]2(C)C(CC[C@]3(C)C2CC=C2C4CC(C)(C)CC[C@]4(C(=O)O)CC[C@]23C)C(C)(C)[C@H]1O` (some centres unmarked) [Compound 4b], the melting point is 210 to 211 °C. In data set [1], the IC50 was determined as 19.8 ± 1.22 µM. Besides, the IC50 in data set [2] came out at 0.61 ± 0.09 µM.
As for `Cc1cccc(/C=C2\C[C@@]3(C)C(CC[C@]4(C)C3CC=C3C5CC(C)(C)CC[C@]5(C(=O)O)CC[C@]34C)C(C)(C)[C@H]2O)c1` (some centres unmarked) [Compound 4c], the melting point lay in the range of 128 to 129 °C. In data set [1], this compound gave an IC50 of 51.1 ± 2.55 µM. Further, the IC50 in data set [2] worked out at 0.86 ± 0.05 µM.
On to `Cc1ccc(/C=C2\C[C@@]3(C)C(CC[C@]4(C)C3CC=C3C5CC(C)(C)CC[C@]5(C(=O)O)CC[C@]34C)C(C)(C)[C@H]2O)cc1` (some centres unmarked) [Compound 4d], for which the melting point was 146 to 147 °C. In addition, the IC50 in data set [1] worked out at 62.2 ± 1.89 µM. The IC50 in data set [2] amounted to 2.41 ± 0.08 µM.
Take `COc1ccccc1/C=C1\C[C@@]2(C)C(CC[C@]3(C)C2CC=C2C4CC(C)(C)CC[C@]4(C(=O)O)CC[C@]23C)C(C)(C)[C@H]1O` (some centres unmarked) [Compound 4e]: the melting point fell in the range of 200 to 201 °C. In data set [1], the midpoint of inhibition, the IC50, lay at 20.5 ± 2.29 µM. The IC50 in data set [2] was found to be 1.92 ± 0.13 µM.
With `COc1cccc(/C=C2\C[C@@]3(C)C(CC[C@]4(C)C3CC=C3C5CC(C)(C)CC[C@]5(C(=O)O)CC[C@]34C)C(C)(C)[C@H]2O)c1` (some centres unmarked) [Compound 4f], the melting point lay within 200 to 201 °C. The IC50 in data set [1] was determined as 60.3 ± 1.88 µM. Also, the IC50 in data set [2] worked out at 1.63 ± 0.1 µM.
For the compound `COc1ccc(/C=C2\C[C@@]3(C)C(CC[C@]4(C)C3CC=C3C5CC(C)(C)CC[C@]5(C(=O)O)CC[C@]34C)C(C)(C)[C@H]2O)cc1` (some centres unmarked) [Compound 4g], the melting point fell in the range of 296 to 297 °C. Further, the 50% inhibitory concentration (IC50) in data set [1] is 59.1 ± 1.98 µM. For the same compound, in data set [2], the IC50 was 3.96 ± 0.21 µM.
Take `CC1(C)CC[C@]2(C(=O)O)CC[C@]3(C)C(=CCC4[C@@]5(C)C/C(=C\c6ccccc6F)[C@H](O)C(C)(C)C5CC[C@]43C)C2C1` (some centres unmarked) [Compound 4h]: the melting point is 165 to 166 °C. In addition, the IC50 in data set [1] turned out to be 18.5 ± 1.39 µM. Further, the IC50 in data set [2] was determined as 0.83 ± 0.04 µM.
`CC1(C)CC[C@]2(C(=O)O)CC[C@]3(C)C(=CCC4[C@@]5(C)C/C(=C\c6cccc(F)c6)[C@H](O)C(C)(C)C5CC[C@]43C)C2C1` (some centres unmarked) [Compound 4i] showed a melting point of 157 to 158 °C. The compound further displayed an IC50 in data set [1] of 20.3 ± 2.18 µM. Also, in the data set with 3T3-L1 cells, the “Cell cytotoxicity against 3T3-L1 cells” value is on record as “non-cytotoxic effect”. Further, in the data set on HepG2 cells, the “Cell cytotoxicity against HepG2 cells” value is “non-cytotoxic effect”. Further, in data set [2], the “α-glucosidase inhibition, times stronger than acarbose” value was ~1,663 times and the IC50 is 0.4 ± 0.02 µM. Also, the “Inhibition type against α-glucosidase” value on α-glucosidase (Lineweaver–Burk plots, lines intersect in the second quadrant) was “mixed-type inhibitor”. Also, the “Reversibility of inhibition on α-glucosidase” value at α-glucosidase (setting [3]) was “reversible”.
`CC1(C)CC[C@]2(C(=O)O)CC[C@]3(C)C(=CCC4[C@@]5(C)C/C(=C\c6ccc(F)cc6)[C@H](O)C(C)(C)C5CC[C@]43C)C2C1` (some centres unmarked) [Compound 4j] came in with a melting point of 226 to 227 °C. The IC50 in data set [1] came out at 15.7 ± 1.53 µM. The IC50 in data set [2] came out at 1.23 ± 0.07 µM.
As for `CC1(C)CC[C@]2(C(=O)O)CC[C@]3(C)C(=CCC4[C@@]5(C)C/C(=C\c6ccccc6Cl)[C@H](O)C(C)(C)C5CC[C@]43C)C2C1` (some centres unmarked) [Compound 4k], the melting point fell in the range of 219 to 220 °C. The same compound displayed a concentration for half-maximal inhibition (IC50) in data set [1] of 45.4 ± 2.16 µM. In addition, in data set [2], the half-inhibitory concentration (IC50) is 0.88 ± 0.04 µM.
The corresponding values for `CC1(C)CC[C@]2(C(=O)O)CC[C@]3(C)C(=CCC4[C@@]5(C)C/C(=C\c6cccc(Cl)c6)[C@H](O)C(C)(C)C5CC[C@]43C)C2C1` (some centres unmarked) [Compound 4l] are 242 to 243 °C, 19.4 ± 0.73 µM and 0.45 ± 0.02 µM.
For `CC1(C)CC[C@]2(C(=O)O)CC[C@]3(C)C(=CCC4[C@@]5(C)C/C(=C\c6ccc(Cl)cc6)[C@H](O)C(C)(C)C5CC[C@]43C)C2C1` (some centres unmarked) [Compound 4m], the melting point is 196 to 197 °C. Also, half-maximal inhibition in data set [1] (IC50) was put at 20.5 ± 1.09 µM. Further, the IC50 in data set [2] came out at 1.73 ± 0.16 µM.
For the compound `CC1(C)CC[C@]2(C(=O)O)CC[C@]3(C)C(=CCC4[C@@]5(C)C/C(=C\c6ccccc6Br)[C@H](O)C(C)(C)C5CC[C@]43C)C2C1` (some centres unmarked) [Compound 4n], the melting point lay in the range of 234 to 235 °C. In data set [1], the IC50 came out at 16.8 ± 1.04 µM. The half-inhibitory concentration (IC50) in data set [2] came out at 0.72 ± 0.06 µM.
Compound `CC1(C)CCC2(C(=O)O)CCC3(C)C(=CCC4C5(C)CC(=Cc6cccc(Br)c6)C(O)C(C)(C)C5CCC43C)C2C1` (centres unmarked) [Compound 4o] displayed a melting point of 197 to 198 °C. The compound further had an IC50 in data set [1] of 9.59 ± 0.58 µM. For the same compound, in the data set on 3T3-L1 cells, the “Cell cytotoxicity against 3T3-L1 cells” value is on record as “non-cytotoxic effect”. The “Inhibition type against α-amylase” value at α-amylase (Lineweaver–Burk plots, lines intersect in the first quadrant) was “mixed-type inhibitor”. On α-amylase (setting [3]), the “Reversibility of inhibition on α-amylase” value is listed as “reversible”. Also, the “Cell cytotoxicity against HepG2 cells” value in the data set on HepG2 cells is on record as “non-cytotoxic effect”. In data set [2], the IC50 is 0.52 ± 0.02 µM.
`CC1(C)CC[C@]2(C(=O)O)CC[C@]3(C)C(=CCC4[C@@]5(C)C/C(=C\c6ccc(Br)cc6)[C@H](O)C(C)(C)C5CC[C@]43C)C2C1` (some centres unmarked) [Compound 4p] gave a melting point of 224 to 225 °C. Besides, the IC50 in data set [1] was found to be 19.5 ± 1.85 µM. The IC50 in data set [2] was determined as 1.18 ± 0.14 µM.
For `CC1(C)CC[C@]2(C(=O)O)CC[C@]3(C)C(=CCC4[C@@]5(C)C/C(=C\c6ccccc6[N+](=O)[O-])[C@H](O)C(C)(C)C5CC[C@]43C)C2C1` (some centres unmarked) [Compound 4q], the melting point was 197 to 198 °C. The compound further displayed an IC50 in data set [1] of 20.2 ± 1.2 µM. Moreover, in data set [2], the IC50 was determined as 1.17 ± 0.1 µM.
With `CC1(C)CC[C@]2(C(=O)O)CC[C@]3(C)C(=CCC4[C@@]5(C)C/C(=C\c6cccc([N+](=O)[O-])c6)[C@H](O)C(C)(C)C5CC[C@]43C)C2C1` (some centres unmarked) [Compound 4r], the melting point was in the range of 191 to 192 °C. In data set [1], this compound returned an IC50 of 20.8 ± 1.88 µM. The IC50 in data set [2] came to 1.08 ± 0.04 µM.
The compound `CC1(C)CC[C@]2(C(=O)O)CC[C@]3(C)C(=CCC4[C@@]5(C)C/C(=C\c6ccc([N+](=O)[O-])cc6)[C@H](O)C(C)(C)C5CC[C@]43C)C2C1` (some centres unmarked) [Compound 4s] had a melting point of 219 to 220 °C. Further, the IC50 in data set [1] was 55.6 ± 2.52 µM. The IC50 in data set [2] came out at 1.22 ± 0.14 µM.
